Measurements published in PMC7674337, “Phylogenetic analysis of plant multi-domain SEC14-like phosphatidylinositol transfer proteins and structure–function properties of PATELLIN2” (Plant Molecular Biology, 2020).

Target: T1, PATL2 (PATELLIN2; StrepII-PATL2) (Arabidopsis thaliana, UniProt Q56ZI2)
T1 construct: full-length CDS from Col-0 root cDNA; StrepII-tagged (pET-52b(+)), E. coli BL21(DE3) pLysS; Strep-Tactin purified
T1 sequence (Q56ZI2 2-683): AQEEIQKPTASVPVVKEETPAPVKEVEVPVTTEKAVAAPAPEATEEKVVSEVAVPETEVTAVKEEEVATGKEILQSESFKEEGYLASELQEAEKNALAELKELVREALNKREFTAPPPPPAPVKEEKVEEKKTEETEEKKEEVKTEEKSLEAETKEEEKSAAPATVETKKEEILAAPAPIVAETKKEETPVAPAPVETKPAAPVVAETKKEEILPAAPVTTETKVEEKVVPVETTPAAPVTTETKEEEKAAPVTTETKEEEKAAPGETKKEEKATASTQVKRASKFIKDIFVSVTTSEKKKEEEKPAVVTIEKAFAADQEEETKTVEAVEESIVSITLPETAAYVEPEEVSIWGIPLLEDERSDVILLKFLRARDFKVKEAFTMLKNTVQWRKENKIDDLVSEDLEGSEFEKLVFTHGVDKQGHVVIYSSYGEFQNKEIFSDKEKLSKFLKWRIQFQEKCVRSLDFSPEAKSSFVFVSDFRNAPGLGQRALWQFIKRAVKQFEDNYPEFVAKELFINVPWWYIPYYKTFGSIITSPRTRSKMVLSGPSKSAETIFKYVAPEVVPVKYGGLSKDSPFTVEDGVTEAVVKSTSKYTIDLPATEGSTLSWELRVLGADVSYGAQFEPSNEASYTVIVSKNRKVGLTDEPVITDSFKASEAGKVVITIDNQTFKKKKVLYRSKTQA
Assay: liposome co-sedimentation, immunoblot
Format: binding
Details: PC/PE liposomes with 7% phosphoinositide; 25 mM Tris-HCl pH 7.5, room temperature

CCCCCCCC/C=C\CCCCCCCC(=O)OC[C@H](COP(=O)(O)O[C@@H]1[C@H](O)[C@H](O)[C@@H](O)[C@H](O)[C@H]1O)OC(=O)CCCCCCC/C=C\CCCCCCCC [PI, 1,2-dioleoyl-sn-glycero-3-phospho-(1′-myo-inositol)]
liposome co-sedimentation, immunoblot: a low amount of PATL2 protein was found in the liposome membrane fraction
